Results reported in the NIST ThermoML archive (doi:10.1016/j.tca.2014.10.015).
Where “and” joins values, the source holds several entries; their conditions need not be identical. Equal values may be shown once.

Settings: Liquid; for mass density: 293 K, 101.33 kPa, Pycnometric method; for vapor or sublimation pressure: Transpiration method

CCCCCCCCCCN=[N+]=[N-] [1-decyl azide]
Settings | mass density [kg/m3] | vapor or sublimation pressure [kPa]
– | 870 | –
299.1 K | – | 0.00431
304 K | – | 0.00666
309 K | – | 0.01017
314 K | – | 0.01489
318.9 K | – | 0.02152
324 K | – | 0.03305
329 K | – | 0.04744
333.9 K | – | 0.06769
339 K | – | 0.0914
344.1 K | – | 0.1347

CCCCCCCCN=[N+]=[N-] [1-azidooctane]
Settings | mass density [kg/m3] | vapor or sublimation pressure
– | 840 | –
276.2 K | – | 0.00625 kPa
279.8 K | – | 0.00904 kPa
282.5 K | – | 0.01172 kPa
285.8 K | – | 0.01548 kPa
289.4 K | – | 0.02119 kPa
292.2 K | – | 0.02751 kPa
293.2 K | – | 0.02911 kPa
296.2 K | – | 0.03707 kPa
300.2 K | – | 0.04808 kPa
302.1 K | – | 0.05805 kPa
303.1 K | – | 0.06504 kPa
307 K | – | 0.08345 kPa
310 K | – | 0.1089 kPa
313.9 K | – | 0.1355 kPa
317.9 K | – | 0.188 kPa
320.9 K | – | 0.2406 kPa
321.8 K | – | 0.2385 kPa
323.9 K | – | 0.2592 kPa and 0.2683 kPa
325.8 K | – | 0.3237 kPa and 0.3236 kPa and 0.3135 kPa
